This assay concerns the target T1, Cathepsin K (Homo sapiens, UniProt P43235).
T1 construct: purchased Biovision K150-100
T1 sequence (P43235 115-329): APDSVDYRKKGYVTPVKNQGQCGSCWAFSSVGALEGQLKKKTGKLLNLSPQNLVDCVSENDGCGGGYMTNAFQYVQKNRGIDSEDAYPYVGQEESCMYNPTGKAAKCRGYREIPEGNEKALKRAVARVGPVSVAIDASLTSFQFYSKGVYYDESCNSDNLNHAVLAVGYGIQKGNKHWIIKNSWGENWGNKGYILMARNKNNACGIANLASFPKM
As to the kind of experiment: Preliminary screening of Cathepsin K (Cathepsin K Inhibitor Screening Kit K150-100, Biovision). In kind it is biochemical. The following applies: relative inhibition rate vs 10 μM FF-FMK control. The protocol:
1. Method for preliminary screening of Cathepsin K:
Preliminary screening of Cathepsin K was performed by using Cathepsin K Inhibitor Screening Kit (Product No. K150-100) from Biovision Company.
1.1.1 Preparation of Cathepsin K enzyme solution: Cathepsin K enzyme (40 μl) and Cathepsin K reagent (80 μl) were added to Cathepsin K buffer (3.88 ml), and were mixed well, to prepare Cathepsin K enzyme solution with a volume of 4 ml, which was placed on ice for further use.
1.1.2 Preparation of a compound solution: different compounds were separately weighed and dissolved in DMSO (methyl sulfoxide), to prepare solutions at a concentration of 30 mM as stock solutions, and for some insoluble compounds, they were prepared into solutions at a concentration of 10 mM as stock solutions; the 30 mM and 10 mM compound stock solutions were diluted to 1 mM and 100 μM DMSO solutions, respectively; 1 mM and 100 μM compound DMSO solutions (2 μl) were separately added to CTSK buffer (18 μl), to prepare compound solutions at a final concentration of 100 μM and 10 μM, respectively, wherein the concentration of DMSO was 10%.
1.1.3 Preparation of Cathepsin K substrate solution: Cathepsin K substrate (160 μl) was added to Cathepsin K buffer (3.44 ml), and mixed homogeneously, to prepare Cathepsin K substrate solution with a volume of 3.6 ml, which was placed on ice for further use.
1.2 Method for screening Cathepsin K inhibitor: Cathepsin K enzyme solution (prepared in Item 1.1.1) was added to a 384-well plate (ProxiPlate-384 Plus, Perkinelmer) at 10 μl/well, and centrifuged at 1000 rpm for 1 min; the compound solution (prepared in Item 1.1.2) was then added at 2 µl/well, and centrifuged at 1000 rpm for 1 min, and every concentration was repeated in two wells; the plate was placed in a 25° C. incubator for 15 min; Cathepsin K substrate solution was then added at 8 μl/well, and centrifuged at 1000 rpm for 1 min; and finally, the fluorescence signal was read in Enspire, wherein the exciting light was at a wavelength of 400 nm, the emitting light was at a wavelength of 505 nm, and continuous reading was performed at 37° C. for 120 min.
1.3 Data analysis: the slope (S) for all the samples was calculated by ΔRFU (RFU2−RFU1) and time ΔT (T2−T1), including negative control (Enzyme Control, EC) and positive control (Inhibitor Control, IC: 10 μM FF-FMK), and the calculation formula was as followed: Relative inhibition rate %=(SEC−SS)/(SEC−SIC)*100.

Where [1] appears, read: 1 μM compound, replicate 1, read-out: Inhibition % (1 μM) replicate 1.
Where [2] appears, read: 1 μM compound, replicate 2, read-out: Inhibition % (1 μM) replicate 2.
Setting [3] is: 10 μM compound, replicate 1, read-out: Inhibition % (10 μM) replicate 1.
The mark [4] stands for this setting: 10 μM compound, replicate 2, read-out: Inhibition % (10 μM) replicate 2.

Like-named read-outs stand apart in the source and are kept apart here.

Regarding `CCOC(=O)[C@H]1O[C@@H]1C(=O)N[C@@H](CSCc1ccccc1)C(=O)NCCCCc1ccccc1` [Compound 20, (2s, 3s)-2-ethoxycarbonyl-3-[2-[(s)-3-benzylthio-1-carbonyl-1-(4-phenylbutylamino)propane]formylamino]epoxysuccinic acid], the inhibition – broadly, the relative decrease from the control value, in per cent – at 1 µM by setting is: under setting [1], 30.2%; under setting [2], 37%. Besides, the inhibition at 10 µM is, setting by setting: under setting [3], 36.3%; under setting [4], 50.4%.
For `CCOC(=O)[C@H]1O[C@@H]1C(=O)N[C@@H](CSCc1ccccc1)C(=O)NCCc1ccc(C)cc1` [Compound 21, (2s, 3s)-2-ethoxycarbonyl-3-[2-[(s)-3-benzylthio-1-carbonyl-1-(p-methylphenylethylamino)propane]formylamino]epoxysuccinic acid], the inhibition at 1 µM was found to be 33.1% under setting [1] and 29.9% under setting [2]. For the same compound, the inhibition at 10 µM by setting is: under setting [3], 67.2%; under setting [4], 53%.
Take `CCOC(=O)[C@H]1O[C@@H]1C(=O)N[C@@H](CSCc1ccccc1)C(=O)N1CCCC1` [Compound 22, (2s, 3s)-2-ethoxycarbonyl-3-[2-[(s)-3-benzylthio-1-carbonyl-1-(tetrahydropyrrolyl)propane]formylamino]epoxysuccinic acid]: the inhibition at 1 µM is 16% under setting [1] and -4.45% under setting [2]. The inhibition at 10 µM came to 29.7% under setting [3] and 19.5% under setting [4].
In the case of `CCOC(=O)[C@H]1O[C@@H]1C(=O)N[C@@H](CSCc1ccccc1)C(=O)N1CCC(c2ccccc2)CC1` [Compound 23, (2s, 3s)-2-ethoxycarbonyl-3-[2-[(s)-3-benzylthio-1-carbonyl-1-(4-phenylpiperidinyl)propane]formylamino]epoxysuccinic acid], the inhibition at 1 µM is 16.1% under setting [1] and 37.7% under setting [2]. In addition, the inhibition at 10 µM stood at 70.1% under setting [3] and 63% under setting [4].
Take `CCOC(=O)[C@H]1O[C@@H]1C(=O)N[C@H](CSCc1ccccc1)C(=O)NCCc1ccc(OC)cc1` [Compound 26, (2s, 3s)-2-ethoxycarbonyl-3-[2-[(s)-3-benzylthio-1-carbonyl-1-(4-methoxyphenylethylamino)propane]formylamino]epoxysuccinic acid]: the “Inhibition % (1 μM) replicate 1” value (1 μM compound, replicate 1) is 35.73%. Moreover, for the setting “1 μM compound, replicate 2”, the “Inhibition % (1 μM) replicate 2” value is reported as 44.11%. In addition, the “Inhibition % (10 μM) replicate 1” value (10 μM compound, replicate 1) worked out at 67.87%. Further, the “Inhibition % (10 μM) replicate 2” value (10 μM compound, replicate 2) was found to be 63.25%.
Consider `CCOC(=O)[C@H]1O[C@@H]1C(=O)N[C@@H](CCSC)C(=O)NCC(C)(C)C` [Compound 30, (2s, 3s)-2-ethoxycarbonyl-3-[2-[(s)-4-methylthio-1-carbonyl-1-(neopentylamino)butane]formylamino]epoxysuccinic acid], for which the inhibition at 1 µM by setting is: under setting [1], 31.6%; under setting [2], 26.9%. Besides, the inhibition at 10 µM was 29.6% under setting [3] and 31.7% under setting [4].
Regarding `CCOC(=O)[C@H]1O[C@@H]1C(=O)N[C@@H](CCSC)C(=O)NC(C)(C)CC` [Compound 31, (2s, 3s)-2-ethoxycarbonyl-3-[2-[(s)-4-methylthio-1-carbonyl-1-(tert-pentylamino)butane]formylamino]epoxysuccinic acid], the inhibition at 1 µM by setting is: under setting [1], 30.5%; under setting [2], 36.6%. The inhibition at 10 µM came to 44.1% under setting [3] and 45.4% under setting [4].
Regarding `CCOC(=O)[C@H]1O[C@@H]1C(=O)N[C@@H](CCSC)C(=O)NC(C)CC` (stereo partly shown) [Compound 32], the inhibition at 1 µM under setting [1] is 37.5% and the inhibition at 1 µM under setting [2] was determined as 38.7%. Further, the inhibition at 10 µM is 36.2% under setting [3] and 40.6% under setting [4].
As to `CCOC(=O)[C@H]1O[C@@H]1C(=O)N[C@@H](CCSC)C(=O)NCCc1ccc(C)cc1` [Compound 33, (2s, 3s)-2-ethoxycarbonyl-3-[2-[(s)-4-methylthio-1-carbonyl-1-(p-methylphenylethylamino)butane]formylamino]epoxysuccinic acid], the inhibition at 1 µM was 36.6% under setting [1] and 33.1% under setting [2]. The inhibition at 10 µM amounted to 34.9% under setting [3] and 36% under setting [4].
On to `CCOC(=O)[C@H]1O[C@@H]1C(=O)N[C@@H](CCSC)C(=O)N1CCCCC1CC` (stereo partly shown) [Compound 35, (2s, 3s)-2-ethoxycarbonyl-3-[2-[(s)-4-methylthio-1-carbonyl-1-(2-ethylpiperidinyl)butane]formylamino]epoxysuccinic acid], for which the inhibition at 1 µM turned out to be 37.8% under setting [1] and 22.8% under setting [2]. The inhibition at 10 µM was found to be 72% under setting [3] and 61.1% under setting [4].
For the compound `CCOC(=O)[C@H]1O[C@@H]1C(=O)N[C@@H](CCSC)C(=O)N1CCSCC1` [Compound 36, (2s, 3s)-2-ethoxycarbonyl-3-[2-[(s)-4-methylthio-1-carbonyl-1-(thiomorpholinyl)butane]formylamino]epoxysuccinic acid], the inhibition at 1 µM is, setting by setting: under setting [1], 17.5%; under setting [2], 21.6%. For the same compound, the inhibition at 10 µM reads like this: under setting [3], 61.4%; under setting [4], 63.5%.
The matching figures for `CCOC(=O)[C@H]1O[C@@H]1C(=O)N[C@@H](CCSC)C(=O)N1CCSC1` [Compound 38, (2s, 3s)-2-ethoxycarbonyl-3-[2-[(s)-4-methylthio-1-carbonyl-1-(tetrahydrothiazolyl)butane]formylamino]epoxysuccinic acid]: 36.8%, 37.9%, 44.3% and 41.4%.
The corresponding values for `CCOC(=O)[C@H]1O[C@@H]1C(=O)N[C@@H](CCSC)C(=O)N1CC(C)CC(C)C1` (stereo partly shown) [Compound 41, (2s, 3s)-2-ethoxycarbonyl-3-[2-[(s)-4-methylthio-1-carbonyl-1-(3,5-dimethylpiperidinyl)butane]formylamino]epoxysuccinic acid] are 32.1%, 30.8%, 64.2% and 61%.

(Values after patent US10647690B2, “2,3-epoxy succinyl derivative, preparation method and use thereof” (Institute of Pharmacology and Toxicology Academy of …, priority 2016, dated 2020).)
